In the Deep4Chem optical property database:

Test: solvent given as SMILES

`CC(C)(C)c1ccc(-c2cc3c(-c4ccc(C(C)(C)C)cc4)c4cccc5c(-c6ccc(C(C)(C)C)cc6)cc6c(-c7ccc(C(C)(C)C)cc7)c7cccc2c7c3c6c54)cc1` showed an emission maximum (in C1CCCCC1) of 463 nm, an emission maximum (in CC#N) of 464 nm and an emission maximum (in CO) of 462 nm. For the same molecule, the emission maximum (in Cc1ccccc1) was 467 nm and the emission maximum (in ClCCl) was 467 nm.

`Cc1ccc(C2=C3C=C(I)C=[N+]3[B-](F)(F)n3cc(I)cc32)cc1` showed an emission maximum (in C1CCCCC1) of 567.5 nm, an emission maximum (in CC#N) of 573 nm and an emission maximum (in CCO) of 573 nm. It also gave an emission maximum (in CCOC(C)=O) of 569.5 nm, an emission maximum (in CO) of 572 nm and an emission maximum (in OCC(F)(F)F) of 567.5 nm.

In the case of `CC(C)[Si](C#Cc1c2ccc(C(C)(C)C)cc2c(C#Cc2c3ccc(C(C)(C)C)cc3c(C#Cc3c4ccc(C(C)(C)C)cc4c(C#C[Si](C(C)C)(C(C)C)C(C)C)c4ccc(C(C)(C)C)cc34)c3ccc(C(C)(C)C)cc23)c2ccc(C(C)(C)C)cc12)(C(C)C)C(C)C`, the emission maximum (in Cc1ccccc1) was 589 nm.

Work on `C[Si](C)(C)C#C[Si](c1c2ccccc2cc2ccccc12)(c1c2ccccc2cc2ccccc12)c1c2ccccc2cc2ccccc12` yielded an emission maximum (in ClC(Cl)Cl) of 438 nm.

Molecule `O=C(O)c1ccccc1Nc1ccccc1` has an emission maximum (in C1CCCCC1) of 430 nm, an emission maximum (in C1CCOC1) of 434 nm and an emission maximum (in C1COCCO1) of 432 nm. For the same molecule, the emission maximum (in CC#N) was 398 nm, the emission maximum (in CCOC(C)=O) was 434 nm and the emission maximum (in CN(C)C=O) was 386 nm. For the same molecule, the emission maximum (in CO) was 390 nm and the emission maximum (in ClC(Cl)Cl) was 450 nm.

In the case of `Cc1cc(C)c(C2=C3C=CC=[N+]3[B-]3(c4ccc5ccc6cccc7ccc4c5c67)Oc4cc(O)cc5c6ccc(C)cc6c6cc2n3c6c45)c(C)c1` (centres undefined), the emission maximum (in ClC(Cl)Cl) was 670 nm.

Work on `CCn1c2ccccc2c2cccc(N(c3ccccc3)c3ccccc3)c21` yielded an emission maximum (in ClCCl) of 423 nm.

Molecule `COC1=[N+]2C(=C(c3ccc(C)cc3)c3ccc(OC)n3[B-]2(F)F)C=C1` has an emission maximum (in C1CCCCC1) of 525 nm, an emission maximum (in C1CCOC1) of 528 nm and an emission maximum (in CC#N) of 522 nm. For the same molecule, the emission maximum (in CCOC(C)=O) was 526 nm, the emission maximum (in CO) was 523 nm and the emission maximum (in Cc1ccccc1) was 530 nm. It also gave an emission maximum (in ClC(Cl)Cl) of 529 nm.

`CCOC(=O)COc1ccc(/C=C/C2=C3c4ccccc4C(c4ccc[nH]4)=[N+]3[B-](F)(F)n3ccc(C)c32)cc1` gave an emission maximum (in C1CCOC1) of 625 nm, an emission maximum (in CC#N) of 617 nm and an emission maximum (in CCCCCC) of 630 nm. The emission maximum (in CO) was 624 nm, the emission maximum (in Cc1ccccc1) was 637 nm and the emission maximum (in ClCCl) was 631 nm.

With `COc1ccc2c(c1)sc1[n+]2[B-](F)(F)OC(c2ccc(N(C)C)cc2)=N1` the emission maximum (in C1CCOC1) was 466 nm, the emission maximum (in CC#N) was 481 nm and the emission maximum (in CC(C)=O) was 477 nm. For the same molecule, the emission maximum (in Cc1ccccc1) was 454 nm and the emission maximum (in ClCCl) was 467 nm.

`Cn1c(-c2ccc(-c3nc(-c4ccccc4)c(-c4ccccc4)n3C)s2)nc(-c2ccccc2)c1-c1ccccc1` gave an emission maximum (in CC#N) of 470 nm.

`Fc1ccc(-c2cc3c4c(c2)CCc2cc(-c5ccc(F)cc5)cc(c2-4)CC3)cc1` gave an emission maximum (in C1CCCCC1) of 374.66 nm, an emission maximum (in C1CCOC1) of 378.18 nm and an emission maximum (in CC#N) of 375.98 nm. For the same molecule, the emission maximum (in CCCCCC) was 374.51 nm, the emission maximum (in CCO) was 375.24 nm and the emission maximum (in CN(C)C=O) was 380.68 nm. For the same molecule, the emission maximum (in CO) was 375.1 nm, the emission maximum (in ClC(Cl)Cl) was 379.68 nm and the emission maximum (in ClCCl) was 378.91 nm.

Molecule `COCCC1=Cc2nc1ccc1[nH]c(cc1CCOC)c1nc(ccc3[nH]c2cc3CCOC)C(CCOC)=C1` has an emission maximum (in Cc1ccccc1) of 642 nm.

Molecule `CCCCCCCCCCCCC(CCCCCCCCCC)Cn1c2cc(/C=C/c3nc4ccccc4s3)c3cccc4c5cccc6c(/C=C/c7nc8ccccc8s7)cc1c(c65)c2c34` (centres undefined) has an emission maximum (in C1CCCCC1) of 570 nm, an emission maximum (in CC#N) of 581 nm and an emission maximum (in Cc1ccccc1) of 582 nm. For the same molecule, the emission maximum (in ClCCl) was 585 nm.

With `O=C1CC(c2ccc(F)cc2)c2c(c3ccccc3c3nc4ccccc4nc23)O1` (centres undefined) the emission maximum (in ClC(Cl)Cl) was 437 nm.

`O=C(O)CCCCCNC(=O)c1cccc2c(=O)c3ccccc3[nH]c12` gave an emission maximum (in O) of 438 nm.

With `Cc1ccc(S(=O)(=O)/N=c2\oc3cccc4c5c(-c6ccccc6)oc6cccc(c(c2-c2ccccc2)c34)c65)cc1` the emission maximum (in ClC(Cl)Cl) was 560 nm.

`CCCCCCC(CCCCCC)n1c(=O)c2c3ccc4cccc5c6cccc7ccc(c2c1=O)c(c76)c3c45` gave an emission maximum (in C1CCCCC1) of 471 nm, an emission maximum (in CC#N) of 527 nm and an emission maximum (in CC(C)=O) of 514 nm. It also gave an emission maximum (in CCCCCC) of 469 nm, an emission maximum (in CCO) of 550 nm and an emission maximum (in CCOCC) of 495 nm. For the same molecule, the emission maximum (in CS(C)=O) was 534 nm, the emission maximum (in Cc1ccccc1) was 491 nm and the emission maximum (in ClC(Cl)(Cl)Cl) was 482 nm. It also gave an emission maximum (in ClC(Cl)Cl) of 522 nm.

In the case of `Cc1cc(C(F)(F)F)nc2c1ccc1nc(-c3ccc(F)c(F)c3)cn12`, the emission maximum (in CC#N) was 460 nm, the emission maximum (in CCCCCC) was 433 nm and the emission maximum (in CCCCOC(C)=O) was 453 nm. It also gave an emission maximum (in CCOC(C)=O) of 454 nm, an emission maximum (in CO) of 456 nm and an emission maximum (in Cc1ccccc1) of 451 nm. For the same molecule, the emission maximum (in ClC(Cl)Cl) was 448 nm, the emission maximum (in ClCCl) was 451 nm and the emission maximum (in c1ccccc1) was 450 nm.

With `Cc1cc(C)c(B(c2c(C)cc(C)cc2C)c2cc3cc(N(C)C)c4ccccc4c3c3c2ccc2ccccc23)c(C)c1` the emission maximum (in C1CCCCC1) was 509 nm, the emission maximum (in C1CCOC1) was 553 nm and the emission maximum (in CC#N) was 565 nm. The emission maximum (in ClC(Cl)Cl) was 536 nm and the emission maximum (in c1ccccc1) was 539 nm.

For `O=c1cccc2n1C[C@@H]1CNC[C@H]2C1`, the emission maximum (in CC#N) was 380 nm.

Work on `Fc1cc(-c2ccc(-c3nc4ccccc4[nH]3)cc2)ccc1-c1ccc(-c2nc3ccccc3[nH]2)cc1` yielded an emission maximum (in CN(C)C=O) of 414 nm.

In the case of `COc1ccccc1-c1c2ccc(=[N+]3CCCCC3)cc-2oc2cc(N3CCCCC3)ccc12`, the emission maximum (in CCO) was 586 nm and the emission maximum (in ClCCl) was 585 nm.

In the case of `O=c1oc2cccc3c4cccc5ccc6c7cc(F)ccc7c1c(c23)c6c54`, the emission maximum (in C1CCOC1) was 424 nm.

`C1=C(c2ccccc2)C=C(c2ccccc2)/C1=C/c1cccc(Oc2ccccc2)c1` showed an emission maximum (in C1CCOC1) of 506 nm.

`N#CC1=CC(Br)=CC(C#N)=P1(c1ccccc1)c1ccccc1` showed an emission maximum (in ClC(Cl)Cl) of 519 nm.

`F[B-]1(F)n2c(c(-c3ccccc3)c(-c3ccccc3)c2-c2ccccc2)C=C2C(c3ccccc3)=C(c3ccccc3)C(c3ccccc3)=[N+]21` showed an emission maximum (in C1CCOC1) of 608 nm.

In the case of `CC1=C(c2ccc(N(c3ccccc3)c3ccccc3)cc2)C(C)=[N+]2C1=C(c1c(-c3ccccn3)nc3ccccn13)c1c(C)c(-c3ccc(N(c4ccccc4)c4ccccc4)cc3)c(C)n1[B-]2(F)F`, the emission maximum (in ClCCl) was 709 nm.

`C(#Cc1ccc(C#Cc2ccc(C#Cc3ccccc3)cc2)cc1)c1ccccc1` gave an emission maximum (in ClC(Cl)Cl) of 387 nm.

For `CN1/C(=C/C=C/C2=[N+](CCCCCC(=O)O)c3ccc(S(=O)(=O)[O-])cc3C2(C)C)C(C)(C)c2cc(S(=O)(=O)[O-])ccc21`, the emission maximum (in O) was 562 nm.

Molecule `COc1ccc(-c2ccc(/C=C/c3cnc4ccccc4n3)cc2)cc1` has an emission maximum (in ClCCl) of 485 nm.

With `C[Si]1(C)O[Si](C)(C)c2cc3c(-c4ccccc4)c4ccccc4nc3cc21` the emission maximum (in ClCCl) was 502 nm.

`N#Cc1ccc(/C=C2\N=C(c3ccccc3)OC2=O)cc1` gave an emission maximum (in C1COCCO1) of 426 nm.

For `COc1ccc(-c2cnc3cccc(-c4ccccc4)n23)cc1`, the emission maximum (in ClCCl) was 484 nm.

`CCC(C)Nc1c2ccc(=[N+]3CCCCC3)cc-2oc2cc(N3CCCCC3)ccc12` (centres undefined) showed an emission maximum (in ClCCl) of 537 nm.

`Oc1ccccc1-c1nc2ccccc2s1` showed an emission maximum (in CCO) of 373 nm, an emission maximum (in ClCCl) of 396 nm and an emission maximum (in O) of 463 nm.

`CC(C)c1cccc(C(C)C)c1N1C(=O)c2cc(Oc3ccc(C(C)(C)C)cc3)c3c4c(Oc5ccc(C(C)(C)C)cc5)cc5c6c(cc(Oc7ccc(C(C)(C)C)cc7)c(c7c(Oc8ccc(C(C)(C)C)cc8)cc(c2c37)C1=O)c64)C(=O)N(c1c(C(C)C)cccc1C(C)C)C5=O` gave an emission maximum (in Cc1ccccc1) of 611 nm.

For `Cc1c(C)c(N2c3ccccc3CCc3ccccc32)c(C)c(C)c1-c1nc(-c2ccccc2)nc(-c2ccccc2)n1`, the emission maximum (in Cc1ccccc1) was 457.94 nm.

`CC1(C)c2ccccc2N(c2ccc(-c3ccc4c(c3)c3cc(-c5ccc(N6c7ccccc7C(C)(C)c7ccccc76)cc5)ccc3c3nc(C#N)c(C#N)nc43)cc2)c2ccccc21` showed an emission maximum (in C1COCCO1) of 668.71 nm, an emission maximum (in CCCCCC) of 507.36 nm and an emission maximum (in Cc1ccccc1) of 612 nm. The emission maximum (in O=P(c1ccccc1)(c1ccccc1)c1cccc(-c2cc(-n3c4ccccc4c4ccccc43)cc(-n3c4ccccc4c4ccccc43)c2)n1) was 594 nm.

Molecule `CC(C)(C)c1ccc(-c2ccc(C(C)(C)C)cc2)cc1` has an emission maximum (in C1CCCCC1) of 312 nm.

With `O=c1oc2ccccc2cc1-c1cccc(-c2cc3ccccc3oc2=O)c1` the emission maximum (in ClC(Cl)Cl) was 419 nm.

With `CCCCCCN(c1ccccc1)c1ccc2c(c1)C(CC)(CC)c1cc(/C=C/c3ccc(/C=C(\C#N)C(=O)O)s3)ccc1-2` the emission maximum (in C1CCOC1) was 651 nm, the emission maximum (in C1COCCO1) was 620 nm and the emission maximum (in CC#N) was 554 nm. For the same molecule, the emission maximum (in CC(C)=O) was 574 nm, the emission maximum (in CCOC(C)=O) was 654 nm and the emission maximum (in CN(C)C=O) was 605 nm. It also gave an emission maximum (in CS(C)=O) of 627 nm and an emission maximum (in ClCCl) of 594 nm.

Molecule `C#CCOc1ccc(/C=C/C2=[N+]3C(=C(c4ccc(N(CC)CC)cc4)c4c(C)cc(/C=C/c5ccc(S(=O)(=O)O)cc5S(=O)(=O)O)n4[B-]3(F)F)C(C)=C2)cc1` has an emission maximum (in O) of 660 nm.

Work on `COc1ccc(C(=O)COc2c(C)c(=O)n3c(=O)c(C)c(COC(=O)c4ccccc4Cl)n23)cc1` yielded an emission maximum (in CCO) of 460 nm.

`Cc1cc(O)c(-c2[nH]c(=O)n3c2-c2ccccc2C3=O)cc1Cl` showed an emission maximum (in CC#N) of 479 nm, an emission maximum (in CO) of 496 nm and an emission maximum (in ClCCl) of 478 nm.

Molecule `C(=C\c1ccc(-c2ccncc2)cc1)/c1ccc(-c2ccncc2)cc1` has an emission maximum (in ClCCl) of 387 nm.

Molecule `COC(=O)COc1ccc(/C=C/C2=[N+]3C(=C(c4ccccc4)c4c(C)cc(C)n4[B-]3(F)F)C(C)=C2)cc1` has an emission maximum (in CO) of 574 nm.

Work on `C#CCn1c2ccccc2c2cc(/C=C/c3cc(C)c4n3[B-](F)(F)[N+]3=C(C)C=C(C)C3=C4c3ccc(I)cc3)ccc21` yielded an emission maximum (in CC#N) of 605 nm, an emission maximum (in CS(C)=O) of 614 nm and an emission maximum (in ClC(Cl)Cl) of 607 nm.

In the case of `Cc1csc2[n+]1[B-](F)(F)OC(c1ccc(N(C)C)cc1)=N2`, the emission maximum (in C1CCOC1) was 453 nm, the emission maximum (in CC#N) was 466 nm and the emission maximum (in Cc1ccccc1) was 437 nm. It also gave an emission maximum (in ClCCl) of 453 nm.

`c1ccc(C2c3ccc4ccc5ccccc5c4c3-c3c2ccc2ccc4ccccc4c32)cc1` showed an emission maximum (in ClCCl) of 425 nm.

In the case of `COC(=O)c1ccc(/C=C2\C=C(c3ccc(OC)c(OC)c3)OC2=O)cc1`, the emission maximum (in C1COCCO1) was 522 nm.
